What was measured:
A2780 cells = experiment: MTT cytotoxicity assay, cisplatin-sensitive ovarian cancer cell line; assay type: cell-based; settings: 72 h incubation
Description: (§1) A2780 and A2780CP70 (ovarian cisplatin-sensitive and -resistant) cell lines were obtained from Fox Chase Cancer Center and cultured in RPMI-1640 medium supplemented with 10% fetal bovine serum (FBS) and 1% penicillin/streptomycin.
(§2) The colorimetric MTT assay was used to assess cytotoxicity. In a 96-well plate, 2000 cells per well were seeded in 100 μL growth medium and allowed to attach overnight. The growth media was then aspirated and replaced with 100 μL of growth medium containing varying concentrations of the platinum complexes. Six wells were used per concentration level. After 72 h, the platinum-containing media was aspirated and replaced with 200 μL of RPMI-1640 containing 0.67 mg/mL MTT. The cells were further incubated for 4 h. The MTT solution was removed, and the resulting purple formazan crystals were dissolved in 100 μL of 25:1 mixture of DMSO and aqueous ammonia. The absorbance was measured at 550 nm. The absorbance values were normalized to the Pt-free wells (100% cell viability) and are plotted versus platinum concentration. […] These experiments were repeated at least three times, and the reported IC50 values are the averages of these trials with the error estimated from the resulting standard deviations.

A2780CP70 cells = experiment: MTT cytotoxicity assay, cisplatin-resistant ovarian cancer cell line; assay type: cell-based; settings: for IC50: A2780CP70 (cisplatin-resistant), MTT, 72 h incubation; for R.F. (resistance factor, IC50(resistant)/IC50(sensitive)): A2780CP70 vs A2780, 72 h incubation
Description: as §1, §2

In the case of `O=C1[O][Pt-2]2([NH2+]C3CCCC[C@H]3[NH2+]2)[O]C1=O` (stereo partly drawn) [Oxaliplatin, (R,R-1,2-diaminocyclohexane)oxalatoplatinum(II)], the IC50 (A2780 cells) is reported as 0.25 µM, the IC50 (A2780CP70 cells) is reported as 1 µM and the “R.F. (resistance factor, IC50(resistant)/IC50(sensitive))” value (A2780CP70 cells) is reported as 4.1 ± 0.4.

With `N.N.[Cl][Pt][Cl]` [cisplatin, cis-diamminedichloroplatinum(II)] the IC50 (A2780 cells) was 0.6 ± 0.08 µM, the IC50 (A2780CP70 cells) was 5.2 ± 1.4 µM and the “R.F. (resistance factor, IC50(resistant)/IC50(sensitive))” value (A2780CP70 cells) was 8.7 ± 2.6.

For [Pt(acac)(NH3)2](SO4)0.5, the IC50 (A2780 cells) was 13.9 ± 1.9 µM, the IC50 (A2780CP70 cells) was 122 ± 10 µM and the “R.F. (resistance factor, IC50(resistant)/IC50(sensitive))” value (A2780CP70 cells) was 8.8 ± 1.4.

With “[Pt(succac)(NH3)2]-r(Fxr)3-CONH2 [Pt-MPP]” the IC50 (A2780 cells) was 7.5 ± 0.3 µM, the IC50 (A2780CP70 cells) was 5 ± 1.4 µM and the “R.F. (resistance factor, IC50(resistant)/IC50(sensitive))” value (A2780CP70 cells) was 0.7±0.2.

From patent US9593139B2, “Compositions, methods, and kits comprising platinum compounds associated with a ligand comprising a targeting moiety” (priority 2013, dated 2017)
